Test results from patent US20190192699A1, “NUCLEAR IMAGING AND RADIOTHERAPEUTICS AGENTS TARGETING CARBONIC ANHYDRASE IX AND USES THEREOF” (THE JOHNS HOPKINS UNIVERSITY, priority 2016, published 2019).
“And” between values parts separate entries of the source, which are not always exact repeats. Identical values can stand only once. “Also recorded” adds a separate entry of the source.

How the values were obtained:
[1] = test system: SK-RC-52 xenografts; assay: Biodistribution of [Al18F]XYIMSR-04; format: in vivo, mice; conditions: 1 h post-injection
Method: (§1) Cell Lines and Mouse Models. Animal experiments were performed in accordance with protocols approved by the Johns Hopkins Animal Care and Use Committee (ACUC). Six-week-old female NOD/SCID mice were purchased from the Animal Resource Core of the Sidney Kimmel Comprehensive Cancer Center of Johns Hopkins and were subcutaneously injected in the lower left flank or upper right flank with 1×10^6 SK-RC-52 cells in RPMI 1640 GlutaMAX™ media (Life Technologies, Frederick, Md.) supplemented with 1% fetal bovine serum (FBS). Mice were monitored for tumor size and used for SPECT/CT imaging when the size of the tumor reached 100 mm^3.
Biodistribution of [Al^18F]XYIMSR-04. Mice bearing SK-RC-52 xenografts within the lower left flank were injected intravenously with 740 kBq (20 μCi) of [Al^18F]XYIMSR-04 in 200 μL of PBS. At specific 1 hour time point mentioned in the paper, mice (n=5) were sacrificed by cervical dislocation and the blood was immediately collected by cardiac puncture. Heart, lungs, pancreas, spleen, fat, brain, muscle, small intestines, liver, bone, stomach, kidney, urinary bladder, and tumor were collected. Each organ was weighed and the tissue radioactivity was measured with an automated gamma counter (1282 Compugamma CS, Pharmacia/LKBNuclear, Inc., Mt. Waverly, Vic. Australia). The percentage of injected dose per gram of tissue (% ID/g) was calculated by comparison with samples of a standard dilution of the initial dose. All measurements were corrected for radioactive decay. Data were expressed as mean±standard deviation (SD). Prism software (GraphPAD, San Diego, Calif.) was used to determine statistical significance. Statistical significance was calculated using a paired t test. P-values […] were considered significant.

[2] = test system: CAIX-expressing SK-RC-52 tumors; assay: PET/CT imaging of [Al18F]XYIMSR-04; format: in vivo, mice; conditions: 7.4 MBq (200 μCi) via tail vein
Method: as §1
PET/CT imaging of [Al^18F]XYIMSR-04. Mice harboring subcutaneous SK-RC-52 tumors with the lower left flank were injected with 7.4 MBq (200 μCi) of [Al^18F]XYIMSR-04 in 250 μL of PBS (pH=7.0) intravenously (tail vein). Anesthesia was then induced with 3% isofluorane and maintained at 2% isoflurane. Physiologic temperature was maintained with an external light source while the mouse was on the gantry. […] Whole body 2-bed PET scan was performed using ARGUS small-animal PET/CT scanner (Sedecal, Madrid, Spain) at 250-700 keV energy window. PET acquisition times were: 5 min/bed (1 h) post-injection of [Al^18F]XYIMSR-04. PET images were co-registered with the corresponding 360-slice CT images. […]

Structure (SMILES): CC(CCC(=O)N[C@@H](CC(=O)N[C@@H](CC(=O)N[C@@H](CCCCn1cc(CCCC(=O)Nc2nnc(S(N)(=O)=O)s2)nn1)C(=O)NCCOCCOCCNC(=O)CN1CCN2CCN(CC1)CC(=O)[O][Al]([18F])[O]C(=O)C2)C(=O)O)C(=O)O)(c1ccc(O)cc1)c1ccc(O)cc1 [[Al^18F]XYIMSR-04]
- Biodistribution: Bladder [1]: 20.12 ± 12.51 % ID/g
- Biodistribution: Blood [1]: 0.65 ± 0.11 % ID/g
- Biodistribution: Bone [1]: 1.91 ± 1.39 % ID/g
- Biodistribution: Brain [1]: 0.66 ± 0.04 % ID/g
- Biodistribution: Fat [1]: 1.54 ± 0.25 % ID/g
- Biodistribution: Heart [1]: 5.03 ± 0.51 % ID/g
- Biodistribution: Kidney (kid) [1]: 50.84 ± 2.65 % ID/g
- Biodistribution: Liver [1]: 5.55 ± 0.91 % ID/g
- Biodistribution: Lung [1]: 34.07 ± 5.85 % ID/g
- Biodistribution: Muscle (mm) [1]: 1.74 ± 0.58 % ID/g
- Biodistribution: Pancreas [1]: 3.47 ± 0.16 % ID/g
- Biodistribution: Sm. intestine [1]: 9.59 ± 1.04 % ID/g
- Biodistribution: Spleen [1]: 0.54 ± 0.18 % ID/g
- Biodistribution: Stomach [1]: 21.62 ± 1.85 % ID/g
- Biodistribution: Tumor [1]: 14.40 % ID/g and 14.40 ± 2.18 % ID/g
- Tumor/Blood ratio [1]: 22.1 and 22.1 ± 1.5
- Tumor/kid (kidney) ratio [1]: 0.28 and 0.28 ± 0.03
- Tumor/mm (muscle) ratio [1]: 9.74 and 9.74 ± 2.9
- PET/CT tumor imaging finding [2]: radiotracer uptake in tumor at 1 h post-injection; also recorded: tumor visualization by 1 h post-injection
